From patent US20260285879A1, “CDK INHIBITOR AND CRYSTAL FORM OF PHARMACEUTICALLY ACCEPTABLE SALT THEREOF, AND USE THEREOF” (priority 2023, published 2026) come the findings set out here.

Series [1] can be described thus: Anhydrous crystalline form transformation test. To be noted: mixed sample of equal amounts of crystalline form A-I and A-IV. The series is classed as physicochemical.
A further series relates to SK-MEL-5. The series is described as follows: In vitro tumor cell proliferation inhibition (CTG test). The series is classed as cell-based, human. To be noted: melanoma SK-MEL-5. How it is done: (§1) The tumor cell strains were cultured in an incubator at 37° C. with 5% CO2. The cells were sub-cultured regularly, and those in the logarithmic growth phase were taken for plating. The cells were stained with trypan blue and the viable cells were counted. The cell concentration was adjusted to an appropriate level. The cell suspension was added to each well of the culture plate, and the culture medium without cells was added to the blank control wells. The culture plate was incubated overnight in an incubator at 37° C., 5% CO2, and 100% RH. […] The compound working solution was added to the cell culture plate, and DMSO at the same final concentration was added to the solvent control wells. Then the plate was returned to the incubator for 4-7 days of culture. The cell viability was detected according to the instructions of the Promega CellTiter-Glo (CTG) Luminescent Cell Viability Assay Kit (Promega-G7573).
(§2) The inhibition rate (IR) of the test compound was calculated using the following equation: […]
(§3) The inhibition rates of the compound at different concentrations were calculated in Excel, then the inhibition curve was plotted using GraphPad Prism software and relevant parameters, including the minimum inhibition rate, maximum inhibition rate, and IC50 were calculated. The IC50 was calculated using the following equation:
(§4) [formula] • X: log (concentration) • Y: response value, negatively correlated with X • HillSlope: slope factor

In the next series the test system is MOLM-13. Described as above. To be noted: hematological tumor cells MOLM-13. The series is classed as cell-based, human. How it is done:
as §1, §2, §3, §4

The subject of the next series is MDA-MB-453. The series is described as above. The format is cell-based, human. The note with it: 4-7 days. As to the method:
as §1, §2, §3, §4

The next series concerns MV-4-11. The series is described as above. To be noted: hematological tumor cells MV-4-11. The series is classed as cell-based, human. How it is done:
as §1, §2, §3, §4

In a further series the test system is HCT116. Described as above. The note with it: Rb+ colorectal cancer cells HCT116. The series is classed as cell-based, human. As to the method:
as §1, §2, §3, §4

The next series has as its system Huh-7. Described as above. The format is cell-based, human. To be noted: Rb+ liver cancer cells Huh-7. How it is done: as §1, §2, §3, §4
A further series deals with HT-29. Described as above. The format is cell-based, human. The note with it: Rb+ colorectal cancer cells HT-29. How it is done: as §1, §2, §3, §4
A further series deals with A2780. Described as above. The series is classed as cell-based, human. To be noted: ovarian cancer cells A2780. How it is done:
as §1, §2, §3, §4

In the next series the test system is COLO205. The series is described as above. To be noted: Rb+ colorectal cancer cells COLO205. The format is cell-based, human. As to the method:
as §1, §2, §3, §4

The next series relates to JHH-7. The description is as above. The format is cell-based, human. The note with it: Rb+ liver cancer cells JHH-7. How it is done: as §1, §2, §3, §4
For a further series, the system named is MDA-MB-468 (Rb−). Described as above. The series is classed as cell-based, human. The note with it: 4-7 days. How it is done:
as §1, §2, §3, §4

Another series concerns NCI-H211. Described as above. The series is classed as cell-based, human. To be noted: small cell lung cancer cells NCI-H211. As to the method: as §1, §2, §3, §4
The subject of another series is Hep3B(Rb−). Described as above. The series is classed as cell-based, human. The note with it: Hep3B(Rb−) liver cancer cells. How it is done:
as §1, §2, §3, §4

Each structure is given as a SMILES string.

For `CC(=O)c1c(C)c2cnc(Nc3ccc4c(c3)OC[C@@H]3CN(C5CCN(C)CC5)CCN43)nc2n(C2CCCC2)c1=O` [Compound A], the “Experimental results (crystalline form by XRPD)” value is recorded as “form A-I” in [1] (n-Butanol/Anisole (v:v = 1:1), 25° C.); “form A-I” in series [1] (n-Butanol/Anisole (v:v = 1:1), 37° C.); “form A-I” in series [1] (suspension in n-Butanol, 25° C.); “form A-I” in [1] (suspension in n-Butanol, 37° C.). In addition, the inhibitory activity entry with SK-MEL-5, with MOLM-13, with MV-4-11, in the series on HCT116, with Huh-7 and in the series on HT-29 was “good inhibitory activity” in each case. The inhibitory activity result in the series with A2780, with COLO205, in the series with JHH-7 and in the series on NCI-H211 was “good inhibitory activity” throughout. Also, the “Maximum Inhibition Rate (%)” value in the series with MDA-MB-453 was roughly 100%; with MDA-MB-468 (Rb−) it was “exceeding 99%”. Moreover, the inhibitory effect result in the series on Hep3B(Rb−) is given as “significant inhibitory effect”. Moreover, the maximum inhibition rate entry with Hep3B(Rb−) is recorded as “exceeding 99%”.
